Experimental findings from US6875761B2 (Eisai Co., Ltd., priority 1997, dated 2005) are described below.

The melting point is the temperature, or range, at which the solid turns liquid.

Where a name gives a salt, the structure may show the parent alone.

Take `CCN1CCN(c2nc(-c3ccc(OCCN(C)C)cc3)cc3ccccc23)CC1` (as salt: hydrochloride) [Example 49, 1-(1-Ethylpiperazin-4-Yl)-3-[4-(2-Dimethylaminoethoxy)Phenyl]Isoquinoline]: the melting point lay in the range of 153 to 158 °C.
Then `CCN1CCN(c2nc(-c3ccc(OC)cc3)cc3cnccc23)CC1` (as salt: hydrochloride), with 157 to 160 °C.
Then `CCN1CCN(c2nc(-c3ccc(OC)cc3OC)cc3ccccc23)CC1` (as salt: hydrochloride) [Example 12, 3-(2,4-dimethoxyphenyl)-1-(4-ethylpiperazin-1-yl)isoquinolin Dihydrochloride], with 145 to 148 °C; and `CCN1CCN(c2nc(-c3ccc(OCC(C)O)cc3)cc3cccnc23)CC1` (stereo in doubt) (as salt: hydrochloride) [Example 246, 8-(1-ethylpiperazin-4-yl)-6-{4-[(S)-2-hydroxypropoxy}phenyl]-1,7-naphthyridine Dihydrochloride], with 136 to 140 °C.
Then `CCN1CCN(c2nc(-c3ccc(OCCn4ccnc4)cc3)cc3ccccc23)CC1` (as salt: hydrochloride) [Example 56, 3-{4-[2-(1-Imidazonyl)Ethoxy]phenyl}-1-(4-Ethylpiperazin-1-Yl)Isoquinoline Hydrochloride], with 160 to 162 °C.
In turn, `CCN1CCN(c2nc(-c3cc(OCCO)cc(OCCO)c3)cc3ccccc23)CC1` (as salt: hydrochloride) [Example 38, 3-[3,5-di(2-hydroxyethoxy)phenyl]-1-(4-ethylpiperazin-1-yl)isoquinoline hydrochloride] registered a melting point of 232 to 234 °C.
Then `CCN1CCN(c2nc(-c3ccc(S(=O)(=O)N4CCS(=O)(=O)CC4)cc3)cc3ccccc23)CC1` (as salt: hydrochloride) [Example 77, 3-[(1,1-Dioxythiomorpholinyl)Sulfonylphenyl]-1-(4-Ethylpiperazin-1-Yl)Isoquinoline Hydrochloride], with 198 to 200 °C; and `CCN1CCN(c2nc(-c3ccc(OCCCO)cc3)cc3sccc23)CC1` (as salt: hydrochloride) [Example 462, 4-(4-ethylpiperazin-1-yl)-6-[4-(3-hydroxypropoxy)phenyl]thieno[3,2-c]pyridine dihydrochloride], with 102 to 104 °C.
With `OCCOc1ccc(-c2cc3ccsc3c(N3CCN(CCO)CC3)n2)cc1` (as salt: oxalate) [Example 275, 5-[4-(2-hydroxyethoxy)phenyl]-7-[4-(2-hydroxyethyl)piperazin-1-yl]thieno[3,2-c]pyridine oxalate] the figure was 105 to 107 °C; with `CCN1CCN(c2nc(-c3ccc(CCC(C)(C)O)c(F)c3)cc3ccccc23)CC1` (as salt: hydrochloride) [Example 416, 1-(4-ethylpiperazin-1-yl)-3-[4-(3-hydroxy-3-methylbutyl)-3-fluorophenyl]isoquinoline], 206 to 207 °C.
With `COc1ccc(-c2cc3ccccc3c(N3CCN(C4CC4)CC3)n2)cc1` (as salt: hydrochloride) [Example 239, 1-(1-cyclopropylpiperaziin-4-yl)-3-(4-methoxyphenyl)isoquinoline dihydrochloride] the figure was 138 to 143 °C; with `CCN1CCN(c2nc(-c3ccc(N4CC[S+]([O-])CC4)nc3)cc3ccccc23)CC1` (as salt: hydrochloride) [Example 151, 1-(4-ethylpiperazin-1-yl)-3-[2-(S-oxythiomorpholin-4-yl)pyridin-5-yl]isoquinoline trihydrochloride], 170 °C.
The compound `CCN1CCN(c2nc(-c3ccc(OC)c(CCCO)c3)cc3ccsc23)CC1` (as salt: oxalate) [Example 261, 5-[3-(3-hydroxypropyl)-4-methoxyphenyl]-7-(4-ethylpiperazin-1-yl)thieno[2,3-c]pyridine Oxalate] showed a melting point of 98 to 102 °C.
Then `CCN1CCN(c2nc(-c3ccc(N4CCC(CO)CC4)nc3)cc3ccccc23)CC1` (as salt: hydrochloride) [Example 154, 1-(4-ethylpiperazin-1-yl)-3-[2-(4-hydroxymethylpiperidin-1-yl)pyridin-5-yl]isoquinoline trihydrochloride], with 188 °C; and `CCCNC(=O)c1ccc(-c2cc3ccccc3c(N3CCN(CC)CC3)n2)cc1F` (as salt: hydrochloride) [Example 384, 1-(4-Ethylpiperazin-1-yl)-3-[4-(N-Propylcarbamoyl)-3-Fluorophenyl]Isoquinoline Dihydrochloride], with 124 to 125 °C (dec.).
Then `CCN1CCN(c2nc(-c3ccc(C(F)CCO)cc3)cc3cccnc23)CC1` (centres unmarked) (as salt: hydrochloride) [Example 249, 8-(1-ethylpiperazin-4-yl)-6-[4-(3-hydroxy-1-fluoropropyl)phenyl]-1,7-naphthyridine Dihydrochloride], with 123 to 125 °C; and `COc1ccc(-c2cc3ccccc3c(N3CCN(CCC#N)CC3)n2)cc1` (as salt: hydrochloride), with 164 to 166 °C.
Compound `CCN1CCN(c2nc(-c3ccc([C@@H]4C[C@H](O)CCO4)cc3)cc3ccsc23)CC1` (relative stereo) (as salt: hydrochloride) [Example 454, 7-(4-Ethylpiperazin-1-yl)-5-[4-(cis-4-hydroxytetrahydropyran-2-yl)phenyl]thieno[2,3-c]pyridine dihydrochloride] returned a melting point of 157 to 159 °C.
`CCN1CCN(c2nc(-c3ccc(OCCOC)nc3)cc3ccccc23)CC1` (as salt: hydrochloride) [Example 126, 1-(1-Ethylpiperazin-4-yl)-3-[2-(2-Methoxyethoxy)Pyridin-5-yl]Isoquinoline] showed a melting point of 115 to 120 °C.
With `CCN1CCN(c2nc(-c3ccc(CO)c(CO)c3)cc3ccccc23)CC1` (as salt: hydrochloride) [Example 394, 1-(4-Ethylpiperazin-1-yl)-3-[(3,4-Dihydroxymethyl)Phenyl]Isoquinoline Dihydrochloride] the figure was 130.5 to 132 °C (dec.); with `CCN1CCN(c2nc(-c3ccc(CCCO)cc3)cc3sccc23)CC1` (as salt: hydrochloride) [Example 465, 4-(4-ethylpiperazin-1-yl)-6-[4-(3-hydroxypropy)phenyl]thieno[3,2-c]pyridine dihydrochloride], 125.5 to 126.5 °C.
Compound `CCNS(=O)(=O)Cc1ccc(-c2cc3ccccc3c(N3CCN(CC)CC3)n2)cc1` (as salt: hydrochloride) [Example 80, 3-(4-Ethylaminosulfonylmethylphenyl)-1-(4-Ethylpiperazin-1-Yl)Isoquinoline Hydrochloride] registered a melting point of 154 to 156 °C.
Then `CCN1CCN(c2nc(-c3ccc(OC)cc3)cc3cc(OC)ccc23)CC1` (as salt: hydrochloride), with 218 to 220 °C; and `CCN1CCN(Cc2nc(-c3ccc(OC)cc3)cc3ccccc23)CC1` (as salt: oxalate) [Example 328, 3-(4-methoxyphenyl)-1-(4-ethylpiperazin-1-yl)methylisoquinoline oxalate], with 219 to 221 °C.
With `CCN1CCN(c2nc(-c3ccc(C#N)cc3)cc3ccccc23)CC1` (as salt: hydrochloride) [Example 62, 3-(4-Cyanophenyl)-1-(4-Ethylpiperazin-1-Yl)Isoquinoline Hydrochloride] the figure was 241 °C (dec.).
The compound `CCN1CCN(c2nc(-c3ccc(OCCO)cc3OC)cc3ccccc23)CC1` (as salt: hydrochloride) [Example 425, 1-(4-ethylpiperazin-1-yl)-3-[4-(2-hydroxyethoxy)-2-methoxyphenyl]isoquinoline] showed a melting point of 140 to 142 °C.
As for `CCCCS(=O)(=O)Nc1ccc(-c2cc3ccccc3c(N3CCN(CC)CC3)n2)cc1` (as salt: hydrochloride) [Example 73, 3-(4-Butylsulfonylaminophenyl)-1-(4-Ethylpiperazin-1-Yl)Isoquinoline Hydrochloride], the melting point was 160 to 163 °C.
With `CCN1CCN(c2nc(C(=O)Nc3ccccc3)cc3ccccc23)CC1` (as salt: hydrochloride) [Example 218, 1-(ethylpiperazin-4-yl)-N-phenyl-3-isoquinolinecarboxamide dihydrochloride] the figure was 260 °C (dec.).
With `CCN1CCN(c2nc(-c3ccc(C(=O)NC4CCCCC4)cc3)cc3ccsc23)CC1` (as salt: hydrochloride) [Example 273, dihydrochloride] the figure was 160 to 165 °C.
Then `CCN1CCN(c2nc(/C=C/c3cc(N4CCOCC4)ncn3)cc3ccccc23)CC1` (as salt: oxalate) [Example 215, 3{(E)-2-[4-(4-morpholinyl)pyrimidin-6-yl]ethenyl}-1-(4-ethylpiperazin-1-yl)isoquinoline oxalate], with 130 to 134 °C; and `CCN1CCN(c2nc(-c3ccnc(OCCOC)c3)cc3ccccc23)CC1` (as salt: hydrochloride) [Example 407, 1-(4-ethylpiperazin-1-yl)-3-[2-(2-methoxyethoxy)pyridin-4-yl]isoquinoline], with 139 to 140 °C; and `CCCN1CCN(c2nc(-c3ccc(OCC(C)(C)O)cc3)cc3sccc23)CC1` (as salt: hydrochloride) [Example 289, 6-[4-(2-methyl-2-hydroxypropoxy)phenyl]-4-(4-propylpiperazin-1-yl)thieno[3,2-c]pyridine hydrochloride], with 133 to 135 °C.
Compound `CCN1CCN(c2nc(C(O)c3ccccc3OC)cc3ccccc23)CC1` (centres unmarked) (as salt: oxalate) showed a melting point of 100 to 103 °C.
Regarding `CCN1CCCN(c2nc(-c3ccc(OC)cc3)cc3ccccc23)CC1` (as salt: hydrochloride), the melting point lay within 124 to 125 °C.
Then `CCN1CCN(c2nc(-c3ccc(CCO)c(F)c3)cc3ccccc23)CC1` (as salt: hydrochloride) [Example 385, 1-(4-Ethylpiperazin-1-yl)-3-[3-Fluoro-4-(2-Hydroxyethyl)Phenyl]Isoquinoline Dihydrochloride], with 213 to 215 °C (dec.).
